Experiments:
Assay type in all cases: cell-based
[1] = system: NF-kβ; test: Western blot of NF-kβ in C6 microglia; conditions: LPS 500 ng/mL, Aβ 5 μM, compound 10 μM; Aβ alone 2.62 fold
Method: Western blot analysis was performed to analyse the changes in the protein levels from cell lysates. SH-SY5Y and C6 cells were cultured to 80% confluence in T25 flask, trypsinised and seed into 12 well plate. The cells were cultured for 30 h and then treated with LPS (500 ng/mL) in low serum media for 6 h. Then the cells were treated with Aβ42 (5 μM) alone and with NMIs (M3) (10 μM) for 18 h. The cells were harvested by trypsinisation and the protein was extracted in RIPA lysis buffer with protease inhibitor cocktail (1×). Briefly cells were washed with dPBS and lysed in […] of RIPA lysis buffer with gentle shaking in 4° C. for 30 min. Then the cells were centrifuged at 16000 g for 20 min and the supernatant containing protein was collected and quantified by Bradford assay. The protein lysate was subjected to SDS-PAGE (12% resolving gel) and transferred to PVDF membrane. The blot paper was blocked with 5% skim milk powder for 1 h at room temperature and then washed thrice with TBST. […] All the western blots were quantified by using ImageJ, data was plotted and analysed by GraphPad prism5.
NF-kβ is a tangible drug target for neuroinflammation and AD. […] C6 microglia were primed with LPS (500 ng/mL) followed by Aβ (5 μM) treatment to induce inflammation, which was monitored by the change in NF-kβ levels in western blot analysis (FIG. 16F).

[2] = system: SH-SY5Y cells; test: Cell rescue from Zn (II)-dependent Aβ toxicity (MTT); conditions: Aβ 10 μM, Zn (II) 20 μM, NMIs 20 μM, 30 h; without compound ~61%
Method: Cell rescue from Aβ toxicity by NMIs were assessed in SH-SY5Y cells. The cells were seeded into 96 well plate at cell density of 25,000 cells per well and after 24 h the media was replaced with DMEM-F12 with low serum (2.5% FBS). After 6 h, cells were treated with Aβ (10 μM) alone and with NMIs (20 μM) in low serum media. Different concentrations of compound (10, 20 and 50 μM) were used to treat cells. For metal dependent studies, Aβ (10 μM) with metals (20 μM) in the absence and presence of NMIs (20 μM) was treated. The cells were incubated for 30 h and MTT assay was performed to calculate the percentage cell viability.
Further, the effect of concentration of compounds of the present disclosure on the cell rescue was assessed. […] The ability of NMIs to rescue cells from metal-dependent Aβ toxicity were assessed in the presence of Cu (II) and Zn (II). Cells were treated with Aβ (10 μM) along with metal ions (20 μM) and NMIs (20 μM) for 30 h. Aβ in the presence of Cu (II) reduced cell viability to ˜62% and M3 treatment had rescued cells with viability to 85% (FIG. 12C). Aβ with Zn (II) viability reduced to ˜61% and M3 treatment rescued cells by improving the viability to ˜79% (FIG. 12D). […] These in-cellulo experiments confirmed the ability of M3 to effectively rescue neuronal cells from metal-independent and dependent Aβ toxicity.

[3] = system: SH-SY5Y cells; test: Mitochondrial ROS measurement, MitoSOX; conditions: Aβ 40 μM, 8 h, Aβ alone 1.76 fold
Method: For quantifying mitochondrial ROS levels, SH-SY5Y cells were seeded into 96 well plates and incubated. After 24 h cells were treated with Aβ (20 μM) alone and with two different concentrations of NMIs (M3) (20 and 50 μM) for 8 h and stained with MitoSox Red (5 μM) in PBS for 15 min followed by a wash with PBS thrice. Then quickly fluorescence was measured (λex=510 nm and λem=580 nm) by Spectramax multi-well plate reader in well scan mode (>80 points, with 6 flashes per read). The relative fluorescence was used to assess ROS levels with respect to control. For ROS imaging, cells were seeded onto glass bottom dishes and incubated for 24 h. Cells were treated with Aβ (20 μM) and with NMIs (M3) (50 μM) in low serum media for 8 h. Then the cells were washed with PBS and stained with MitoSOX (5 μM) prepared in PBS and incubated. After 15 min, wash thrice with PBS and imaged in live cell set up in rhodamine channel using 63× oil immersion using Leica DMi8 fluorescence microscope.
Changes in MMP were visualized by treating the cells with Aβ (20 μM) alone and with M3 (50 μM) for 18 h followed by staining with MitoOrange. […] The ability of M3 to modulate Aβ-induced ROS levels in mitochondria was evaluated by the MitoSOX probe. The cells were treated with Aβ (40 μM) alone and with two concentrations of M3 for 8 h followed by treatment with MitoSOX to measure the relative ROS levels. […]

[4] = system: SH-SY5Y cells; test: Apoptosis assay by nuclear staining and morphology; conditions: Aβ 10 μM, compound 20 µM, 24 h
Method: The apoptosis induced by Aβ and rescue by NMIs (M3) was assessed through nuclear staining and morphology analysis. Apoptosis induces DNA damage and morphological change in the nucleus. Based on the nuclear features the extent of apoptosis was assessed as percentage apoptotic cells. SH-SY5Y cells were cultured and treated with Aβ (10 μM) and with NMIs (M3) (20 μM) to quantify the apoptosis and rescue by NMIs (M3). After 24 h the cells were washed with PBS and fixed with 4% paraformaldehyde and then with PBS for 5 min thrice and the nucleus was stained with DAPI (1 μM) for 10 min, washed thrice with PBS and imaged using fluorescence microscope to visualize the nuclear morphology. […] Total of more than 300 cells were counted to calculated the percentage of apoptosis.
Modulation of apoptosis by M3 was quantified by apoptosis assay through nuclear staining and morphological analysis. Apoptotic signals induced nuclear DNA damage show abnormal nuclear features, which has been used to evaluate and quantify the extent of apoptosis. Neuronal cells treated with Aβ (10 μM) alone and with […] for 24 h were stained for the nucleus and analysed for apoptotic morphological features.

O=C1c2cccc3c(N(Cc4ccccn4)Cc4ccccn4)ccc(c23)C(=O)N1CCc1ccc(O)c(O)c1 [M3, 6-(bis(pyridin-2-ylmethyl)amino)-2-(3,4-dihydroxyphenethyl)-1H-benzo[de]isoquinoline-1,3(2H)-dione]
NF-kβ level compared to control [1]: 1.78 fold | cell viability [2]: ~79% | mitochondrial ROS levels compared to control cells ([3]; compound 20 μM): 1.6 fold | mitochondrial ROS levels compared to control cells ([3]; compound 50 μM): 1.25 fold | nuclear morphology ([4]; DAPI): normal nuclear structures | apoptosis of neuronal cells ([4]; Aβ alone ~35%, control ~8.5%): 22.5%

From patent US20250179024A1, “AMYLOID AND ASSOCIATED PATHOLOGY MODULATORS AND METHODS THEREOF” (Jawaharlal Nehru Centre for Advanced Scientific Research, priority 2022, published 2025)
